Type in all cases: functional
One test has as its system Acinetobacter baumannii. As to the kind of experiment: Antibacterial activity against Acinetobacter baumannii WRAIR clinical isolate 13 after 24 hrs by broth microdilution method. The following applies: WRAIR clinical isolate 13, 24 h. In general terms: In broth dilution the organism is exposed to a series of concentrations in liquid medium.
The subject of the next test is Klebsiella pneumoniae. As to the kind of experiment: Antibacterial activity against Klebsiella pneumoniae BAMS clinical isolate 07-18 after 24 hrs by broth microdilution method. The conditions noted are these: BAMS clinical isolate 07-18, 24 h.
For a further test, the system named is Klebsiella aerogenes. Description: Antibacterial activity against Enterobacter aerogenes after 24 hrs by broth microdilution method.
Another test has as its system Enterococcus faecium. Description: Antibacterial activity against Enterococcus faecium MMC4 after 24 hrs by broth microdilution method. The following applies: MMC4, 24 h.
The next test concerns Pseudomonas aeruginosa. Description: Antibacterial activity against Pseudomonas aeruginosa PAO1 after 24 hrs by broth microdilution method. The conditions noted are these: PAO1, 24 h.
The subject of the next test is Staphylococcus aureus. As to the kind of experiment: Antibacterial activity against methicillin-sensitive Staphylococcus aureus UAMS-1 after 24 hrs by broth microdilution method. The following applies: UAMS-1, 24 h.

Among the data in ChEMBL document CHEMBL2375306, “Antimicrobial peptides containing unnatural amino acid exhibit potent bactericidal activity against ESKAPE pathogens” (Bioorg Med Chem, 2013) are MBC and MIC values, retold here.

Converted amounts (≈) assume the structure as drawn. Square brackets hold non-standard residues; d marks the D form. Peptide text beside a SMILES is read from it. ξ: configuration not given here. Pro(3ξ,4ξ-(CH2)4) = O=C(O)[C@H]1NCC2CCCCC21; Tic = O=C(O)[C@@H]1Cc2ccccc2CN1; Dab = NCC[C@H](N)C(=O)O; βAla = NCCC(=O)O Some results are limits rather than exact numbers.

With `CC(C)C[C@H](NC(=O)[C@@H](N)CCCCN)C(=O)N1Cc2ccccc2C[C@H]1C(=O)N1CC2CCCCC2[C@H]1C(=O)NCC(=O)N[C@@H](CCCCN)C(=O)N1Cc2ccccc2C[C@H]1C(=O)N1CC2CCCCC2[C@H]1C(=O)N[C@@H](Cc1ccccc1)C(=O)N1Cc2ccccc2C[C@H]1C(=O)N1CC2CCCCC2[C@H]1C(=O)NCC(=O)N[C@@H](CCCCN)C(=O)N1Cc2ccccc2C[C@H]1C(=O)N1CC2CCCCC2[C@H]1C(=O)N[C@@H](Cc1ccccc1)C(=O)N1Cc2ccccc2C[C@H]1C(=O)N1CC2CCCCC2[C@H]1C(=O)NCC(=O)N[C@@H](CCCCN)C(=O)N1Cc2ccccc2C[C@H]1C(=O)N1CC2CCCCC2[C@H]1C(=O)N[C@@H](CCCCN)C(=O)N[C@@H](CCCCN)C(=O)N[C@@H](CCCCN)C(=O)N[C@@H](CCCCN)C(N)=O` (some centres not stated) (H-KL[Tic][Pro(3ξ,4ξ-(CH2)4)]GK[Tic][Pro(3ξ,4ξ-(CH2)4)]F[Tic][Pro(3ξ,4ξ-(CH2)4)]GK[Tic][Pro(3ξ,4ξ-(CH2)4)]F[Tic][Pro(3ξ,4ξ-(CH2)4)]GK[Tic][Pro(3ξ,4ξ-(CH2)4)]KKKK-NH2), the minimum bactericidal concentration (MBC) (as a rule, the smallest concentration meeting the test's criterion for killing) in the test on Acinetobacter baumannii is 50 µg/mL (≈ 14.4 µM); in the test on Klebsiella pneumoniae it was 100 µg/mL (≈ 28.7 µM); in the test on Klebsiella aerogenes, above 100 µg/mL; in the test with Enterococcus faecium, 25 µg/mL (≈ 7.18 µM); with Pseudomonas aeruginosa, above 100 µg/mL; in the test on Staphylococcus aureus, 50 µg/mL (≈ 14.4 µM). In addition, the MIC (as a rule, the lowest concentration found to suppress growth) in the test on Acinetobacter baumannii is 12.5 µg/mL (≈ 3.59 µM); in the test with Klebsiella pneumoniae, above 100 µg/mL; against Klebsiella aerogenes it was above 100 µg/mL; against Enterococcus faecium it was 6.25 µg/mL (≈ 1.79 µM); against Pseudomonas aeruginosa, above 100 µg/mL; against Staphylococcus aureus, 50 µg/mL (≈ 14.4 µM).
As for `CC(C)C[C@H](NC(=O)[C@@H](N)CCCCN)C(=O)N1Cc2ccccc2C[C@H]1C(=O)N1CC2CCCCC2[C@H]1C(=O)NCC(=O)N[C@@H](CCCCN)C(=O)N1Cc2ccccc2C[C@H]1C(=O)N1CC2CCCCC2[C@H]1C(=O)NCC(=O)N[C@@H](Cc1ccccc1)C(=O)N1Cc2ccccc2C[C@H]1C(=O)N1CC2CCCCC2[C@H]1C(=O)NCC(=O)N[C@@H](CCCCN)C(=O)N1Cc2ccccc2C[C@H]1C(=O)N1CC2CCCCC2[C@H]1C(=O)NCC(=O)N[C@@H](Cc1ccccc1)C(=O)N1Cc2ccccc2C[C@H]1C(=O)N1CC2CCCCC2[C@H]1C(=O)NCC(=O)N[C@@H](CCCCN)C(=O)N1Cc2ccccc2C[C@H]1C(=O)N1CC2CCCCC2[C@H]1C(=O)N[C@@H](CCCCN)C(=O)N[C@@H](CCCCN)C(=O)N[C@@H](CCCCN)C(=O)N[C@@H](CCCCN)C(N)=O` (some centres not stated) (H-KL[Tic][Pro(3ξ,4ξ-(CH2)4)]GK[Tic][Pro(3ξ,4ξ-(CH2)4)]GF[Tic][Pro(3ξ,4ξ-(CH2)4)]GK[Tic][Pro(3ξ,4ξ-(CH2)4)]GF[Tic][Pro(3ξ,4ξ-(CH2)4)]GK[Tic][Pro(3ξ,4ξ-(CH2)4)]KKKK-NH2), the minimum bactericidal concentration (MBC) against Acinetobacter baumannii turned out to be 12.5 µg/mL (≈ 3.47 µM); against Klebsiella pneumoniae, 50 µg/mL (≈ 13.9 µM); against Klebsiella aerogenes, 50 µg/mL (≈ 13.9 µM); against Enterococcus faecium, 25 µg/mL (≈ 6.95 µM); against Pseudomonas aeruginosa, 50 µg/mL (≈ 13.9 µM); in the test with Staphylococcus aureus, 50 µg/mL (≈ 13.9 µM). The MIC against Acinetobacter baumannii was found to be 12.5 µg/mL (≈ 3.47 µM); with Klebsiella pneumoniae it was 50 µg/mL (≈ 13.9 µM); with Klebsiella aerogenes it was 50 µg/mL (≈ 13.9 µM); against Enterococcus faecium, 6.25 µg/mL (≈ 1.74 µM); with Pseudomonas aeruginosa, 50 µg/mL (≈ 13.9 µM); against Staphylococcus aureus, 50 µg/mL (≈ 13.9 µM).
In the case of `CC(C)C[C@H](NC(=O)[C@@H](N)CCCCN)C(=O)N1Cc2ccccc2C[C@H]1C(=O)N1CC2CCCCC2[C@H]1C(=O)NCC(=O)N[C@@H](CCCCN)C(=O)N1Cc2ccccc2C[C@H]1C(=O)N1CC2CCCCC2[C@H]1C(=O)NCCC(=O)N[C@@H](Cc1ccccc1)C(=O)N1Cc2ccccc2C[C@H]1C(=O)N1CC2CCCCC2[C@H]1C(=O)NCC(=O)N[C@@H](CCCCN)C(=O)N1Cc2ccccc2C[C@H]1C(=O)N1CC2CCCCC2[C@H]1C(=O)NCCC(=O)N[C@@H](Cc1ccccc1)C(=O)N1Cc2ccccc2C[C@H]1C(=O)N1CC2CCCCC2[C@H]1C(=O)NCC(=O)N[C@@H](CCCCN)C(=O)N1Cc2ccccc2C[C@H]1C(=O)N1CC2CCCCC2[C@H]1C(=O)N[C@@H](CCCCN)C(=O)N[C@@H](CCCCN)C(=O)N[C@@H](CCCCN)C(=O)N[C@@H](CCCCN)C(N)=O` (some centres not stated) (H-KL[Tic][Pro(3ξ,4ξ-(CH2)4)]GK[Tic][Pro(3ξ,4ξ-(CH2)4)][βAla]F[Tic][Pro(3ξ,4ξ-(CH2)4)]GK[Tic][Pro(3ξ,4ξ-(CH2)4)][βAla]F[Tic][Pro(3ξ,4ξ-(CH2)4)]GK[Tic][Pro(3ξ,4ξ-(CH2)4)]KKKK-NH2), the MBC came to 25 µg/mL (≈ 6.9 µM) with Acinetobacter baumannii; 50 µg/mL (≈ 13.8 µM) in the test with Klebsiella pneumoniae; 100 µg/mL (≈ 27.6 µM) with Klebsiella aerogenes; 25 µg/mL (≈ 6.9 µM) in the test with Enterococcus faecium; 50 µg/mL (≈ 13.8 µM) in the test on Pseudomonas aeruginosa; 50 µg/mL (≈ 13.8 µM) in the test with Staphylococcus aureus. Further, the MIC amounted to 6.25 µg/mL (≈ 1.72 µM) against Acinetobacter baumannii; 50 µg/mL (≈ 13.8 µM) against Klebsiella pneumoniae; 50 µg/mL (≈ 13.8 µM) in the test with Klebsiella aerogenes; 6.25 µg/mL (≈ 1.72 µM) with Enterococcus faecium; 25 µg/mL (≈ 6.9 µM) with Pseudomonas aeruginosa; 50 µg/mL (≈ 13.8 µM) in the test on Staphylococcus aureus.
With `CC(C)C[C@H](NC(=O)[C@@H](N)CCCCN)C(=O)N1Cc2ccccc2C[C@H]1C(=O)N1CC2CCCCC2[C@H]1C(=O)N[C@@H](CCCCN)C(=O)NCC(=O)N1Cc2ccccc2C[C@H]1C(=O)N1CC2CCCCC2[C@H]1C(=O)N[C@@H](Cc1ccccc1)C(=O)N1Cc2ccccc2C[C@H]1C(=O)N1CC2CCCCC2[C@H]1C(=O)N[C@@H](CCCCN)C(=O)NCC(=O)N1Cc2ccccc2C[C@H]1C(=O)N1CC2CCCCC2[C@H]1C(=O)N[C@@H](Cc1ccccc1)C(=O)N1Cc2ccccc2C[C@H]1C(=O)N1CC2CCCCC2[C@H]1C(=O)N[C@@H](CCCCN)C(=O)NCC(=O)N1Cc2ccccc2C[C@H]1C(=O)N1CC2CCCCC2[C@H]1C(=O)N[C@@H](CCCCN)C(=O)N[C@@H](CCCCN)C(=O)N[C@@H](CCCCN)C(=O)N[C@@H](CCCCN)C(N)=O` (some centres not stated) (H-KL[Tic][Pro(3ξ,4ξ-(CH2)4)]KG[Tic][Pro(3ξ,4ξ-(CH2)4)]F[Tic][Pro(3ξ,4ξ-(CH2)4)]KG[Tic][Pro(3ξ,4ξ-(CH2)4)]F[Tic][Pro(3ξ,4ξ-(CH2)4)]KG[Tic][Pro(3ξ,4ξ-(CH2)4)]KKKK-NH2), the MBC with Acinetobacter baumannii was 12.5 µg/mL (≈ 3.59 µM); against Klebsiella pneumoniae, 100 µg/mL (≈ 28.7 µM); in the test on Klebsiella aerogenes, above 100 µg/mL; in the test with Enterococcus faecium, 6.25 µg/mL (≈ 1.79 µM); in the test with Pseudomonas aeruginosa, 50 µg/mL (≈ 14.4 µM); against Staphylococcus aureus, 50 µg/mL (≈ 14.4 µM). Further, the minimum inhibitory concentration (MIC) is 12.5 µg/mL (≈ 3.59 µM) with Acinetobacter baumannii; 50 µg/mL (≈ 14.4 µM) against Klebsiella pneumoniae; above 100 µg/mL in the test with Klebsiella aerogenes; 6.25 µg/mL (≈ 1.79 µM) in the test with Enterococcus faecium; 50 µg/mL (≈ 14.4 µM) against Pseudomonas aeruginosa; 50 µg/mL (≈ 14.4 µM) against Staphylococcus aureus.
As to `CC(C)C[C@H](NC(=O)[C@@H](N)CCCCN)C(=O)N1Cc2ccccc2C[C@H]1C(=O)N1CC2CCCCC2[C@H]1C(=O)N[C@@H](CCCCN)C(=O)N1Cc2ccccc2C[C@H]1C(=O)N1CC2CCCCC2[C@H]1C(=O)N[C@@H](Cc1ccccc1)C(=O)N1Cc2ccccc2C[C@H]1C(=O)N1CC2CCCCC2[C@H]1C(=O)N[C@@H](CCCCN)C(=O)N1Cc2ccccc2C[C@H]1C(=O)N1CC2CCCCC2[C@H]1C(=O)N[C@@H](Cc1ccccc1)C(=O)N1Cc2ccccc2C[C@H]1C(=O)N1CC2CCCCC2[C@H]1C(=O)N[C@@H](CCCCN)C(=O)N1Cc2ccccc2C[C@H]1C(=O)N1CC2CCCCC2[C@H]1C(=O)N[C@@H](CCCCN)C(=O)N[C@@H](CCCNC(=N)N)C(N)=O` (some centres not stated) (H-KL[Tic][Pro(3ξ,4ξ-(CH2)4)]K[Tic][Pro(3ξ,4ξ-(CH2)4)]F[Tic][Pro(3ξ,4ξ-(CH2)4)]K[Tic][Pro(3ξ,4ξ-(CH2)4)]F[Tic][Pro(3ξ,4ξ-(CH2)4)]K[Tic][Pro(3ξ,4ξ-(CH2)4)]KR-NH2), the MBC in the test on Acinetobacter baumannii is above 100 µg/mL; against Klebsiella pneumoniae it was above 100 µg/mL; against Klebsiella aerogenes, above 100 µg/mL; in the test on Enterococcus faecium it was 25 µg/mL (≈ 8.11 µM); in the test with Pseudomonas aeruginosa, above 100 µg/mL; against Staphylococcus aureus, 50 µg/mL (≈ 16.2 µM). The MIC against Acinetobacter baumannii is 100 µg/mL (≈ 32.4 µM); against Klebsiella pneumoniae, above 100 µg/mL; with Klebsiella aerogenes, above 100 µg/mL; in the test on Enterococcus faecium, 12.5 µg/mL (≈ 4.05 µM); in the test with Pseudomonas aeruginosa, above 100 µg/mL; against Staphylococcus aureus it was 50 µg/mL (≈ 16.2 µM).
For `CC(C)C[C@H](NC(=O)[C@@H](N)CCN)C(=O)N1Cc2ccccc2C[C@H]1C(=O)N1CC2CCCCC2[C@H]1C(=O)N[C@@H](CCN)C(=O)N1Cc2ccccc2C[C@H]1C(=O)N1CC2CCCCC2[C@H]1C(=O)N[C@@H](Cc1ccccc1)C(=O)N1Cc2ccccc2C[C@H]1C(=O)N1CC2CCCCC2[C@H]1C(=O)N[C@@H](CCN)C(=O)N1Cc2ccccc2C[C@H]1C(=O)N1CC2CCCCC2[C@H]1C(=O)N[C@@H](Cc1ccccc1)C(=O)N1Cc2ccccc2C[C@H]1C(=O)N1CC2CCCCC2[C@H]1C(=O)N[C@@H](CCN)C(=O)N1Cc2ccccc2C[C@H]1C(=O)N1CC2CCCCC2[C@H]1C(=O)N[C@@H](CCN)C(=O)N[C@@H](CCN)C(=O)N[C@@H](CCN)C(=O)N[C@@H](CCN)C(N)=O` (some centres not stated) (H-[Dab]L[Tic][Pro(3ξ,4ξ-(CH2)4)][Dab][Tic][Pro(3ξ,4ξ-(CH2)4)]F[Tic][Pro(3ξ,4ξ-(CH2)4)][Dab][Tic][Pro(3ξ,4ξ-(CH2)4)]F[Tic][Pro(3ξ,4ξ-(CH2)4)][Dab][Tic][Pro(3ξ,4ξ-(CH2)4)][Dab][Dab][Dab][Dab]-NH2), the MBC turned out to be 100 µg/mL (≈ 32.4 µM) with Acinetobacter baumannii; 100 µg/mL (≈ 32.4 µM) in the test on Klebsiella pneumoniae; 50 µg/mL (≈ 16.2 µM) in the test on Klebsiella aerogenes; 25 µg/mL (≈ 8.1 µM) against Enterococcus faecium; 100 µg/mL (≈ 32.4 µM) against Pseudomonas aeruginosa; 25 µg/mL (≈ 8.1 µM) with Staphylococcus aureus. Further, the minimal inhibitory concentration (MIC) in the test with Acinetobacter baumannii was determined as 25 µg/mL (≈ 8.1 µM); in the test with Klebsiella pneumoniae, 50 µg/mL (≈ 16.2 µM); against Klebsiella aerogenes, 50 µg/mL (≈ 16.2 µM); in the test on Enterococcus faecium, 12.5 µg/mL (≈ 4.05 µM); against Pseudomonas aeruginosa, 50 µg/mL (≈ 16.2 µM); in the test with Staphylococcus aureus, 25 µg/mL (≈ 8.1 µM).
